In the supplement of paper PMC11451515:

Columns and labels:
NOMO1 [1] = assay: cell viability relative to DMSO control; higher = less cytotoxic; conditions: RPMI 5 mM glucose + 10% FBS, 48 h
Procedure, shortened: (§1)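 Viability is a per-plate percentage relative to DMSO wells, with cell-free wells as background. CellTiter-Glo One luminescence was read after 48 h at 37°C on 1536-well plates (5 μl) of NOMO1 or SEM (500 cells/well) or P12-Ichikawa (1000 cells/well) leukemia cells. The cells had been adapted for at least four passages in each medium and pin-dosed with library compounds in DMSO from 47 μM to 0.79 nM in 11 threefold steps.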

SEM cells [2] = assay: as above; conditions: 48 h
Procedure, shortened: as §1

NOMO1 [3] = assay: AUC of viability dose-response curve (% viability x log10 dose units); higher = less sensitive; conditions: 48 h
Procedure, shortened: (§2)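 In 1536-well plates, leukemia cells adapted to each medium (500 or 1000 cells/well) were exposed for 48 h at 37°C to library compounds in DMSO across 11 threefold doses, 47 μM down to 0.79 nM. Viability was read by CellTiter-Glo One luminescence and normalised per plate to DMSO and cell-free wells. A four-parameter log-logistic fit over log10 doses was integrated by trapezoidal rule. This yielded the area under the curve, with over-full-viability curves scaled and quality-control failures dropped.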

P12-Ichikawa = assay: as above; conditions: 48 h
Procedure, shortened: as §2

SEM cells [4] = assay: as above; conditions: 48 h
Procedure, shortened: as §2

CC(C)C[C@@H](C=O)NC(=O)[C@H](CC(C)C)NC(=O)[C@H](CC(C)C)NC(=O)OCc1ccccc1
Conditions | AUC of viability dose-response curve | cell viability [%]
NOMO1 [1], 0.000781 µM | – | 115
NOMO1 [1], 0.00234 µM | – | 119
NOMO1 [1], 0.00702 µM | – | 130
NOMO1 [1], 0.0211 µM | – | 143
NOMO1 [1], 0.0632 µM | – | 134
NOMO1 [1], 0.19 µM | – | 128
NOMO1 [1], 0.569 µM | – | 78.1
NOMO1 [1], 1.71 µM | – | 42.1
NOMO1 [1], 5.12 µM | – | 10.2
NOMO1 [1], 15.4 µM | – | 8.45
NOMO1 [1], 46.1 µM | – | 7.38
NOMO1 [3], HPLM + 10% dialyzed FBS | 337 | –
NOMO1 [3], RPMI 5 mM glucose + 10% FBS | 312 | –
NOMO1 [3], RPMI 5 mM glucose + 10% dialyzed FBS | 351 | –
P12-Ichikawa, HPLM + 10% dialyzed FBS | 364 | –
P12-Ichikawa, RPMI 5 mM glucose + 10% FBS | 324 | –
P12-Ichikawa, RPMI 5 mM glucose + 10% dialyzed FBS | 361 | –
SEM cells [4], HPLM + 10% dialyzed FBS | 305 | –
SEM cells [4], RPMI 5 mM glucose + 10% FBS | 279 | –
SEM cells [4], RPMI 5 mM glucose + 10% dialyzed FBS | 315 | –

cell viability [%], SEM cells [2]
Conditions | HPLM + 10% dialyzed FBS | RPMI 5 mM glucose + 10% FBS
0.000781 µM | 108 | 111
0.00234 µM | 115 | 131
0.00702 µM | 126 | 124
0.0211 µM | 122 | 143
0.0632 µM | 148 | 124
0.19 µM | 139 | 127
0.569 µM | 81.8 | 10.8
1.71 µM | 9.69 | 9.94
5.12 µM | 9.22 | 10
15.4 µM | 8.52 | 9.17
46.1 µM | 8.11 | 8.59

CC(C)(Oc1ccc(C2CC2(Cl)Cl)cc1)C(=O)O (centres undefined)
cell viability [%], SEM cells [2]
Conditions | HPLM + 10% dialyzed FBS | RPMI 5 mM glucose + 10% FBS
0.000781 µM | 125 | 117
0.00234 µM | 131 | 109
0.00702 µM | 123 | 101
0.0211 µM | 125 | 111
0.0632 µM | 127 | 101
0.19 µM | 128 | 110
0.569 µM | 120 | 91.9
1.71 µM | 122 | 119
5.12 µM | 95.3 | 79.9
15.4 µM | 110 | 106
46.1 µM | 63.6 | 49

AUC of viability dose-response curve
Conditions | NOMO1 [3] | P12-Ichikawa | SEM cells [4]
HPLM + 10% dialyzed FBS | 457 | 453 | 444
RPMI 5 mM glucose + 10% FBS | 454 | 447 | 464
RPMI 5 mM glucose + 10% dialyzed FBS | 453 | 453 | 456

C=CC[C@@H]1/C=C(\C)C[C@H](C)C[C@H](OC)[C@H]2O[C@@](O)(C(=O)C(=O)N3CCCC[C@H]3C(=O)O[C@H](/C(C)=C/[C@@H]3CC[C@@H](O)[C@H](OC)C3)[C@H](C)[C@@H](O)CC1=O)[C@H](C)C[C@@H]2OC
SEM cells [2], HPLM + 10% dialyzed FBS
Conditions | cell viability [%]
0.000781 µM | 102
0.00234 µM | 125
0.00702 µM | 131
0.0211 µM | 123
0.0632 µM | 115
0.19 µM | 111
0.569 µM | 107
1.71 µM | 74.9
5.12 µM | 60.9
15.4 µM | 30.8
46.1 µM | 100

AUC of viability dose-response curve
Conditions | NOMO1 [3] | P12-Ichikawa | SEM cells [4]
HPLM + 10% dialyzed FBS | 412 | 466 | 400
RPMI 5 mM glucose + 10% FBS | 453 | 448 | 376
RPMI 5 mM glucose + 10% dialyzed FBS | 436 | 449 | 362

CN1CCN(c2ccc(C(=O)Nc3n[nH]c4ccc(Cc5cc(F)cc(F)c5)cc34)c(NC3CCOCC3)c2)CC1
AUC of viability dose-response curve
Conditions | HPLM + 10% dialyzed FBS | RPMI 5 mM glucose + 10% FBS | RPMI 5 mM glucose + 10% dialyzed FBS
P12-Ichikawa | 440 | 440 | 404
SEM cells [4] | 341 | 352 | 354

CC1COC2(CCN(CC2)C/3=N/C(=O)C4=CC(=CC(=C4S3)[N+]([O-])=O)C(F)(F)F)O1 (centres undefined)
SEM cells [2], HPLM + 10% dialyzed FBS
Conditions | cell viability [%]
0.000781 µM | 97.9
0.00234 µM | 105
0.00702 µM | 122
0.0211 µM | 109
0.0632 µM | 93.9
0.19 µM | 126
0.569 µM | 133
1.71 µM | 122
5.12 µM | 117
15.4 µM | 82.3
46.1 µM | 78.3

AUC of viability dose-response curve
Conditions | NOMO1 [3] | P12-Ichikawa | SEM cells [4]
HPLM + 10% dialyzed FBS | 471 | 448 | 456
RPMI 5 mM glucose + 10% FBS | 473 | 442 | 441
RPMI 5 mM glucose + 10% dialyzed FBS | 467 | 434 | 446
